Test systems include LOX IMVI; HCT-15; U-251; CCRF-CEM; TK-10; RPMI-8226; SK-MEL-2; HL-60; SK-MEL-28; UACC-257; K562; SNB-78; Malme-3M; COLO 205; HOP-62; CAKI-1; MDA-N; DU-145; T47D; NCI/ADR-RES.
What all share (test): DTP human tumour cell line panel, 48 h

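These data come from cells grown in 96-well plates and exposed to compound for 48 hours at five concentrations. Abbreviation: GI50, concentration required for 50% inhibition of growth.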 The source made the active and inactive calls. Cut-off read from the data, not from the text of the source: active = GI50 up to about 1.1 µM and inactive = higher. Bounds are passed on as bounds.

For the compound `O=C(NNC(=O)c1cc(/C=C/c2cccc([N+](=O)[O-])c2)nc(S)n1)Nc1ccc(Cl)cc1`, the GI50 – broadly, the concentration giving 50% growth inhibition – in the test on LOX IMVI was 20 µM (inactive); in the test with HCT-15 it was 35.6 µM; with U-251, 14.8 µM (inactive); in the test on CCRF-CEM, 20.6 µM (inactive); in the test with TK-10 it was > 100 µM (inactive); in the test with RPMI-8226 it was 25.5 µM (inactive). Further, the GI50 in the test on SK-MEL-2 was > 100 µM (inactive); in the test on HL-60 it was 0.883 µM (active); in the test with SK-MEL-28, > 100 µM (inactive); with UACC-257, 91 µM (inactive); in the test on K562, 39.2 µM (inactive); with SNB-78 it was > 100 µM (inactive). Moreover, the GI50 with Malme-3M was > 100 µM (inactive); in the test on COLO 205 it was 18.4 µM (inactive); with HOP-62, > 100 µM (inactive).

For `Cc1cccc(C)c1N1C(=O)C(=O)C(c2nc3ccccc3s2)/C(=N/NC(=O)NN)C1=O` (stereo not drawn), the GI50 in the test with HCT-15 is more than 100 µM; with U-251, > 100 µM (inactive); in the test with CCRF-CEM, > 100 µM (inactive); in the test on TK-10, > 100 µM (inactive); in the test with SK-MEL-2, > 100 µM (inactive); with HL-60, > 100 µM (inactive). Also, the GI50 in the test with SK-MEL-28, with UACC-257, in the test on SNB-78, in the test with Malme-3M, with COLO 205 and in the test on HOP-62 was > 100 µM (inactive) throughout. Moreover, in the test on CAKI-1, the GI50 is > 100 µM (inactive).

Take `CN(C(=N)c1ccccc1)c1ccccc1`: the GI50 was 84.7 µM (inactive) with LOX IMVI; more than 100 µM in the test with HCT-15; > 100 µM (inactive) with U-251; > 100 µM (inactive) in the test on CCRF-CEM; > 100 µM (inactive) with TK-10; > 100 µM (inactive) in the test on RPMI-8226. The GI50 with SK-MEL-2, in the test on HL-60, in the test on SK-MEL-28, in the test on K562, in the test on SNB-78 and with COLO 205 was > 100 µM (inactive) throughout.

With `COc1ccc2c(CN3CCCCC3CO)cc3cc(OC)c(OC)cc3c2c1` (stereo not drawn), the GI50 in the test on LOX IMVI is 3.32 µM (inactive); in the test on HCT-15, 4.38 µM; with U-251, 5.85 µM (inactive); with CCRF-CEM, 3.56 µM (inactive); with TK-10 it was 4.7 µM (inactive); with RPMI-8226, 3.48 µM (inactive). Further, the GI50 with SK-MEL-2 is 4.17 µM (inactive); in the test with HL-60 it was 3.38 µM (inactive); in the test with SK-MEL-28 it was 6.32 µM (inactive); with UACC-257, 3.82 µM (inactive); in the test with K562 it was 2.59 µM (inactive); with SNB-78 it was 6.93 µM (inactive). The results for the GI50 with Malme-3M, with COLO 205 and in the test on HOP-62 were 4.63 µM (inactive), 2.58 µM (inactive) and 6.43 µM (inactive), respectively.

`O=C(O)CCSC(=O)Nc1ccccc1Cl`: the GI50 is > 100 µM (inactive) with LOX IMVI; more than 100 µM in the test on HCT-15; > 100 µM (inactive) in the test with U-251; > 100 µM (inactive) in the test on CCRF-CEM; > 100 µM (inactive) in the test with TK-10; > 100 µM (inactive) with RPMI-8226. Moreover, the GI50 in the test on SK-MEL-28, in the test on UACC-257, in the test on K562, in the test with SNB-78, in the test on Malme-3M and with COLO 205 was > 100 µM (inactive) in each case. In addition, the GI50 with HOP-62 and in the test with CAKI-1 was > 100 µM (inactive) in each case.

For `COc1cccc2c1OC1Sc3ccccc3-c3nn(-c4ccccc4)c-2c31` (stereo not drawn), the GI50 with LOX IMVI, in the test with U-251, in the test with CCRF-CEM, in the test with TK-10, in the test on RPMI-8226 and in the test with SK-MEL-2 was > 100 µM (inactive) each time. Moreover, the GI50 with HL-60, with SK-MEL-28, in the test with UACC-257, with K562, in the test with SNB-78 and in the test on Malme-3M was > 100 µM (inactive) each time. Further, the GI50 with COLO 205 and with HOP-62 was > 100 µM (inactive) throughout.

On to `CC1(c2ccccc2)CC(c2ccccc2)=NO1` (stereo not drawn), for which the GI50 in the test on HCT-15 was more than 100 µM; with U-251, > 100 µM (inactive); in the test with CCRF-CEM, > 100 µM (inactive); in the test on TK-10, > 100 µM (inactive); with RPMI-8226, > 100 µM (inactive); with SK-MEL-2, > 100 µM (inactive). Besides, the GI50 in the test on HL-60, in the test on SK-MEL-28, with UACC-257, in the test on K562, in the test on SNB-78 and in the test on Malme-3M was > 100 µM (inactive) each time. The GI50 in the test on COLO 205, in the test on HOP-62 and in the test with CAKI-1 was > 100 µM (inactive) in each case.

For the compound `C/C(=N\NC(=O)c1ccccc1O)c1c(O)cc(C)oc1=O`, the GI50 in the test on LOX IMVI is 76 µM (inactive); in the test with HCT-15, 91.2 µM; with U-251 it was 37.7 µM (inactive); in the test with CCRF-CEM, > 10 µM (inactive); in the test with TK-10, > 100 µM (inactive); with RPMI-8226 it was 50.4 µM (inactive). Further, the GI50 in the test with SK-MEL-2 was > 100 µM (inactive); in the test on HL-60 it was 63.2 µM (inactive); in the test with SK-MEL-28, > 100 µM (inactive); in the test with UACC-257, 60 µM (inactive); in the test on K562, 72.6 µM (inactive); in the test with SNB-78, > 100 µM (inactive). In addition, the GI50 with Malme-3M was 99.5 µM (inactive); in the test with COLO 205, > 100 µM (inactive); with HOP-62, 98.6 µM (inactive).

On to `O=C(NC(=O)c1ccccc1[N+](=O)[O-])Nc1ccc(Oc2ncc(Br)cn2)c(Cl)c1`, for which the GI50 was 0.00857 µM (active) in the test on MDA-N; 0.0528 µM (active) in the test with LOX IMVI; 0.0441 µM in the test with HCT-15; 0.0427 µM (active) in the test with U-251; 0.0318 µM (active) in the test with DU-145; 0.0284 µM (active) with CCRF-CEM. Moreover, the GI50 with TK-10 was 0.0362 µM (active); in the test with RPMI-8226, 0.0256 µM (active); with SK-MEL-2, 0.0213 µM (active); in the test on HL-60 it was 0.00383 µM (active); with SK-MEL-28, 0.0286 µM (active); with UACC-257 it was 0.0237 µM (active). The GI50 in the test on K562 was 0.0194 µM (active); in the test on T47D it was 0.0871 µM (active); in the test with NCI/ADR-RES, 0.0198 µM (active); with Malme-3M it was 0.0138 µM (active); in the test on COLO 205, 0.046 µM (active); with HOP-62, 0.0249 µM (active). In the test on CAKI-1, the GI50 was 0.0194 µM (active).

Take `COC(=O)C1=CC2OC13CC1CCC3(C2=O)C1(C)C` (stereo not drawn): the GI50 was 5.36 µM in the test with HCT-15; 12.9 µM (inactive) in the test with U-251; 3.25 µM (inactive) with CCRF-CEM; 10.4 µM (inactive) with TK-10; 15.1 µM (inactive) with RPMI-8226; 15.2 µM (inactive) in the test with SK-MEL-2. The GI50 with HL-60 was 6.9 µM (inactive); in the test with UACC-257, 10.4 µM (inactive); in the test on K562, 11.2 µM (inactive); with SNB-78, 14.4 µM (inactive); in the test on Malme-3M, 8.07 µM (inactive); with COLO 205, 15.5 µM (inactive). In addition, the GI50 in the test with HOP-62 is 23.4 µM (inactive); in the test with CAKI-1, 2.2 µM (inactive).

`O=C(/C=C/c1ccccc1)CSc1nc2ccc(I)cc2c(=O)n1Cc1ccccc1`: the GI50 is 30.8 µM (inactive) with MDA-N; 37 µM (inactive) in the test with LOX IMVI; 19.5 µM in the test with HCT-15; 26.5 µM (inactive) with U-251; 15.2 µM (inactive) in the test with DU-145; 11.3 µM (inactive) with CCRF-CEM. Moreover, the GI50 was 28.8 µM (inactive) with TK-10; 13.6 µM (inactive) in the test with RPMI-8226; 28.4 µM (inactive) in the test with SK-MEL-2; 17.1 µM (inactive) in the test with HL-60; 99.5 µM (inactive) with SK-MEL-28; 19.4 µM (inactive) in the test with UACC-257. In addition, the GI50 in the test with K562 was 13.9 µM (inactive); in the test with T47D, 9.16 µM (inactive); in the test on NCI/ADR-RES, 14 µM (inactive); in the test with Malme-3M, 23.6 µM (inactive); in the test on COLO 205, 17.5 µM (inactive); in the test on HOP-62, 14.3 µM (inactive). Further, the GI50 with CAKI-1 was 1.71 µM (inactive).

For the compound `COC(=O)C1=CC2C(=O)OC1C1C(=O)NC(=O)C21` (stereo not drawn), the GI50 in the test with LOX IMVI, with U-251, with CCRF-CEM, in the test on TK-10, with RPMI-8226 and with HL-60 was > 100 µM (inactive) in each case. In addition, the GI50 in the test on SK-MEL-28, in the test with UACC-257, in the test with K562, in the test with SNB-78, in the test with Malme-3M and in the test on COLO 205 was > 100 µM (inactive) each time. Also, the GI50 in the test on HOP-62 and in the test with CAKI-1 was > 100 µM (inactive) in each case.

On to `COc1ccc(C(O)/C(=N/N)c2nc3ccc(Cl)cc3nc2O)cc1` (stereo not drawn), for which the GI50 was > 100 µM (inactive) in the test with MDA-N; > 100 µM (inactive) with LOX IMVI; more than 100 µM with HCT-15; > 100 µM (inactive) in the test on U-251; > 100 µM (inactive) in the test on DU-145; > 100 µM (inactive) in the test on CCRF-CEM. Moreover, the GI50 is > 100 µM (inactive) in the test on TK-10; 97.7 µM (inactive) in the test on RPMI-8226; > 100 µM (inactive) in the test with SK-MEL-2; > 100 µM (inactive) in the test on HL-60; > 100 µM (inactive) in the test with SK-MEL-28; > 100 µM (inactive) in the test on UACC-257. In addition, the GI50 in the test with K562 is > 100 µM (inactive); with T47D, 99.8 µM (inactive); in the test on NCI/ADR-RES, > 100 µM (inactive); in the test on Malme-3M, > 100 µM (inactive); in the test on COLO 205 it was > 100 µM (inactive); with HOP-62 it was > 100 µM (inactive). The GI50 with CAKI-1 was > 100 µM (inactive).

These data come from ChEMBL document CHEMBL1201862, “PubChem BioAssay data set” (2004).
